Assay results published in patent US12655107B2 (The United States of America, as represented by the …, priority 2018, dated 2026).

Columns and labels:
[1] = tested on: γH2AX foci in HCT116 cells; experiment: γH2AX detection by immunofluorescence; assay type: cell-based, human; conditions: HCT116, 1 μM, 3 h
Protocol: To evaluate the DNA damaging effect of 50 in cancer cells, γH2AX foci were assessed by immunofluorescence microscopy in human […] HCT116 cells. After incubation with the compounds for 3 h, the HCT116 cells were stained with γH2AX antibodies.
HCT116 cells (2×10^4 cells/mL) were grown in culture medium and treated with compounds for 3 h at 37° C. […] Cells were permeabilized with 0.5% Triton X-100 in PBS at 0° C. for 30 min. Dish was blocked with 5% goat serum/PBS at 37° C. for 3 h. […] The dishes were again washed six times with blocking buffer. Digital images were recorded using an LSM710 microscope (Zeiss, Germany) and analyzed with ZEN software.

[2] = tested on: HCT116 cells; experiment: Flow cytometry apoptosis assay; assay type: cell-based, human; conditions: HCT116, 24 h, 0.5, 1 and 2 μM
Protocol: To evaluate the induction of apoptosis by 50, flow cytometry assays were performed in HCT116 cells.
The stained cells were analyzed by using flow cytometry (BD, FACSCalibur, USA) within I h. The experiments were repeated three times independently.

[3] = tested on: HCT116 xenograft; experiment: In vivo antitumor activity, HCT116 xenograft; conditions: HCT116 xenograft
[4] = Pharmacokinetic study in rat; conditions: SD rats, i.g. 5 mg/kg
Protocol: The SD rats were divided into two groups (n=3) and treated by intravenous injection (i.v.) at 1 mg/kg dose and intragastrical administration (i.g.) at 5 mg/kg dose, respectively.
A pharmacokinetic (PK) study in vivo of 50 was performed in Sprague-Dawley (SD) rats. The SD rats were randomly divided into two groups […] and treated by intravenous injection (iv) at 1 mg/kg dose or an intragastrical administration (ig) at 5 mg/kg dose, respectively. Plasma samples were collected postdosing and the concentration of 50 was measured.
Plasma samples (100 μL) were obtained after centrifugation for 10 min at 3000 rpm and stored at −20° C. until used for analysis. The plasma was detected through LC-MS-MS.

[5] = tested on: pBR322 DNA; experiment: Top1-mediated unwinding assay; assay type: biochemical; conditions: supercoiled or relaxed pBR322 DNA, excess Top1, 19a up to 9 μM
Protocol: The binding of classical DNA intercalators between the base pair of circular DNA produce Top1-mediated unwinding effect, thereby antagonizing Top1-mediated DNA relaxation. […]. […] […]. The reaction mixture (20 μL) contained supercoiled or relaxed pBR322 DNA (0.5 μg), tested compounds and excess Top1 (10 units) in relaxing buffer (10 mM Tris, pH 7.5, 0.1 mM EDTA, 5 mM MgCl2, 50 mM KCl, 1 mM DTT, 15 μg/mL acetylated BSA). The DNA was incubated with the tested compounds at room temperature for 10 min prior to the addition of Top1. After being incubated for 30 min at 37° C., the reaction was terminated by the addition of […] loading buffer. The results were analyzed using 1% agarose gel in TAE buffer at 5 V/cm. The gel was stained with gel red and visualized with a UV transilluminator.

[6] = tested on: HCT116; experiment: MTT cytotoxicity assay, HCT116; assay type: cell-based, human; conditions: 72 h, Table 1b, read-out: GI50 (μM) HCT116
Protocol: (§1) Cytotoxicity Assays. […] The cells were incubated with the tested compounds for 72 hours in a five-dose assay ranging from 0.01 to 100 μM concentration. After drug treatments, MTT solution was added to test the percentage growth of tumor cells.
(§2) The compounds were incubated with the cells for 72 hours in a five-dose assay ranging from 0.01 to 100 μM concentration. At the end of the incubation, the MTT solution was added to test the percentage growth of tumor cells.
(§3) For the drug treatment experiments, the cancer cells were treated with the compounds (predissolved in DMSO) at a five-dose assay ranging from 0.01 to 100 μM concentration. […] After 4 h incubation, the formazan crystal formed in the well was dissolved with […] of DMSO for optical density reading at 570 nm. The GI50 value was calculated by nonlinear regression analysis (GraphPad Prism).

[7] = tested on: Huh7; experiment: MTT cytotoxicity assay, Huh7; assay type: cell-based, human; conditions: 72 h, Table 1b
Protocol: as §1, §3

[8] = target: T1, Top1 (Homo sapiens, UniProt P11387); experiment: Top1-mediated DNA cleavage assay; assay type: biochemical; conditions: semi-quantitative score relative to CPT (1) at 1 μM; tested at 0.1-100 μM
T1 sequence (P11387 1-765): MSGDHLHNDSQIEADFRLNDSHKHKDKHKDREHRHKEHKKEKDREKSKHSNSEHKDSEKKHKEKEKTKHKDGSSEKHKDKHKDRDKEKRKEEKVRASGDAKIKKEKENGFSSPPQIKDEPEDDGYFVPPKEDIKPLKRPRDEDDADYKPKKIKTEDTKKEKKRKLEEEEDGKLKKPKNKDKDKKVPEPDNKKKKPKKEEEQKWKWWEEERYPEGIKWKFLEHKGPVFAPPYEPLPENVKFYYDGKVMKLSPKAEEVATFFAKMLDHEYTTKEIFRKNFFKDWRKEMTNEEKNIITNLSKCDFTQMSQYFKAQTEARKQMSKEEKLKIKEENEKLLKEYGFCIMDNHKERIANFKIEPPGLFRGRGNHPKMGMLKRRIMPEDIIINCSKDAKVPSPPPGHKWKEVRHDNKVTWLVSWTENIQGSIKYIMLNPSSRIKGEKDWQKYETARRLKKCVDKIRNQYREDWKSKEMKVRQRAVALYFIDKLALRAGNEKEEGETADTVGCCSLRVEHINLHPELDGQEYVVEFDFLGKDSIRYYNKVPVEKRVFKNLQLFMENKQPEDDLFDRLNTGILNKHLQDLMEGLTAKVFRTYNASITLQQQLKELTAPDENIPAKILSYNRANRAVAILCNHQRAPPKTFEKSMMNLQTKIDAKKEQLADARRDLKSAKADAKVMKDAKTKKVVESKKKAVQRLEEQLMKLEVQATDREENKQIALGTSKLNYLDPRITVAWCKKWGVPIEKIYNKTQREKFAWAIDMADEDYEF

[9] = tested on: DU145; experiment: MTT cytotoxicity assay, DU145; assay type: cell-based, human; conditions: 72 h, Table 1b, read-out: GI50 (μM) DU145
Protocol: as §1, §2, §3

[10] = target: T2, Tdp1 (Homo sapiens, UniProt Q9NUW8); experiment: Tdp1 inhibition fluorescence assay; assay type: biochemical; conditions: compounds at 100 μM
Protocol: Tdp Inhibition. […] The compounds were tested at 100 μM concentration. […] Fluorescence assay. […] Tdp1 solution (20 μL/well, 0.02 μL purified Tdp1 (100 nM) in 10 mM Tris-HCl, pH 7.5, 50 mM KCL, I mM EDTA, 1 mM DTT) was dispensed into wells of a white 384-well plate (NEST). The tested compound solution in DMSO (5 μL) was pinned into assay plates and incubated at room temperature for 30 min. […] Tdp percentage inhibition of the tested compounds was calculated by comparing the rate of increase in fluorescence throughout time for the compound-treated wells to that of DMSO control wells.

[11] = tested on: F10T dsDNA; experiment: FRET melting assay; assay type: binding; conditions: compounds at 2 μM
Protocol: It was reported that nitidine can intercalate into double-stranded DNA (dsDNA) and inhibit Top1. […] The DNA intercalator 49 was used as positive control.
FRET melting assay was carried out on a real-time PCR apparatus as the following methods. […] In the experiment, the annealed oligonucleotide (final concentration of 0.4 μM) were incubated with the tested compounds (2 μM) in a total reaction volume of Tris-HCl buffer (10 mM, pH 7.4) containing 60 mM KCl at 37° C. for 0.5 h. Fluorescence melting curves were determined with a Roche LightCycler 2 real-time PCR machine with excitation at 470 nm and detection at 530 nm.

[12] = tested on: A549; experiment: MTT cytotoxicity assay, A549; assay type: cell-based, human; conditions: 72 h, Table 1b, read-out: GI50 (μM) A549
Protocol: as §1, §2, §3

[13] = tested on: CCRF-CEM; experiment: MTT cytotoxicity assay, CCRF-CEM; assay type: cell-based, human; conditions: 72 h, Table 1b
Protocol: as §1, §3

[14] = target: T2, Tdp1; conditions: reported in the background; cited from earlier work

T2 sequence (Q9NUW8 whole entry): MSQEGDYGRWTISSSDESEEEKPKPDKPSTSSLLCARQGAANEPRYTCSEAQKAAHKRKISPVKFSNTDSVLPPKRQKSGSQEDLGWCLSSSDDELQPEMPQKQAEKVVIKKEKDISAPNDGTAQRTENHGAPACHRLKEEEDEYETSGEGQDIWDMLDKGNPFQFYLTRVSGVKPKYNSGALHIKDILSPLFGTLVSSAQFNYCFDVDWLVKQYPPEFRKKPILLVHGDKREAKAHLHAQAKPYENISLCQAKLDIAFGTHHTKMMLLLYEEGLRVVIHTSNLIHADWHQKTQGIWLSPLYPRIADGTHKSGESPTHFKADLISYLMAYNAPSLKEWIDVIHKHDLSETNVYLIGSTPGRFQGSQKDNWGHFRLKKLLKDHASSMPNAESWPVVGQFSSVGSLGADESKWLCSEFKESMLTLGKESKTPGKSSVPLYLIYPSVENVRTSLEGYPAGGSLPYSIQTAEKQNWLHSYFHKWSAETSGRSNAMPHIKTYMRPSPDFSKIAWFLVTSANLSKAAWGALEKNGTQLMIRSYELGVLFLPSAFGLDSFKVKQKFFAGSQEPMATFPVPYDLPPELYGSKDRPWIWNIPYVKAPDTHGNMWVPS

## COc1cc2c(=O)n(CCN(C)C)c3c4cc5c(cc4ccc3c2cc1OC)OCO5 [Compound 19a, 12-(2-(Dimethylamino)ethyl)-2,3-dimethoxy-[1,3]dioxolo[4′,5′:4,5]benzo[1,2-c]phenanthridin-13(12H)-one]
[1]
  γH2AX foci: γH2AX foci were induced
[2]
  induction of apoptosis: significantly induce HCT116 cells apoptosis in a dose-dependent manner
[3]; 5 mg/kg i.p. daily
  body weight: no obvious body loss
[3]; 10 mg/kg i.p. daily
  body weight: Body weight loss was found
[3]; i.p. once every day
  tumor volume: significantly reduced tumor volume in a dose-dependent manner
[4]
  Tmax: 1.17 ± 0.76 h
[5]
  Top1-mediated unwinding effect: no Top1-mediated unwinding effect

## COc1cc2c(cc1OC)-c1ccc3cc4c(cc3c1N(CCN(C)C)C2)OCO4 [Compound 26a, 2-(2,3-Dimethoxy-[1,3]dioxolo[4′,5′:4,5]benzo[1,2-c]phenanthridin-12(131)-yl)-N,N-dimethylethan-1-amine]
[6]
  GI50: 7.36 ± 3.55 µM
[7]
  GI50: 7.78 ± 2.91 µM
[8]
  TOP1 inhibition: + (+, between 20% and 50% activity)
[9]
  GI50: 1.93 ± 0.41 µM
[10]
  TDP1 inhibition: 0%
[11]
  ΔTm (°C.) F10T: 1.0 °C
[12]
  GI50: 6.68 ± 1.93 µM
[13]
  GI50: 0.95 ± 0.14 µM
  GI50 (μM) CCRF-CEM: submicromolar concentration

## [Na+].[Na+].[Na+].[O]=[V]([O-])([O-])[O-] [sodium orthovanadate]
[14]
  Tdp1 inhibition: inhibition only at millimolar concentration
